Data: publication PMC3495945, “Org 214007-0: A Novel Non-Steroidal Selective Glucocorticoid Receptor Modulator with Full Anti-Inflammatory Properties and Improved Therapeutic Index” (PLoS ONE, 2012)
Read-outs that look alike come from different tables or passages of the source. Blank lines part the entries; values can stand above or below the compound they belong to.

How the values were obtained:
THP-1 cells = test: THP-1 repression of TNFα/IFNγ-induced MCP-1, IL-6, IL-8 release; type: cell-based, human; details: for IC50: Homo sapiens, THP-1, TNFα (60 ng/ml)/IFNγ (40 ng/ml); for Max. eff., IL-6 repression / Max. eff., IL-8 repression / Max. eff., MCP-1 repression: THP-1, I/T, prednisolone = 100%
Method: After 6 hours total RNA was isolated and further processed for microarray hybridization as described for the HepG2 cells. The data from all microarray experiments have been deposited in the NCBI Gene Expression Omnibus (GEO) under accession number (identifier will be included in proof). […] Expression of FKBP51, MCP-1, IL-6 and IL-8 protein was measured by specific […]; #A[…] [MCP-1], #A[…] [IL-6] and #A[…] [IL-8]) according to the manufacturer manual. […] Expression of FKBP51, DUSP1 and GILZ was measured by Q-PCR according to the same procedure as described for the HepG2 cells. In this case the following primer-pairs were used: for GAPDH: [NT] and [NT]; for FKBP51: [NT] and [NT]; for DUSP1: [NT] and [NT]; for GILZ: [NT] and [NT]. For the evaluation of protein expression, cells were incubated overnight with a whole dose range of compounds. Supernatants were collected to determine cytokine levels and cell lysates were generated by repeated freeze-thaw cycles to measure expression of FKBP51 protein. Expression of FKBP51, MCP-1, IL-6 and IL-8 was measured by specific […]; #A[…] [MCP-1], #A[…] [IL-6] and #A[…] [IL-8]) according to the manufacturer manual. […] Samples were incubated for 60 min at 23 C. […] Plates were measured using an EnVision-Alpha Reader.

[1] = system: anti-CD3-induced IL-2 release; test: anti-CD3-induced IL-2 mouse model; type: in vivo; details: oral; for ED50: Mus musculus, 1 hour before anti-CD3 i.p., Balb/c mice, read-out: ED50, reduction of anti-CD3-induced IL-2 serum levels; for efficacy, inhibition of anti-CD3-induced IL-2: relative to 10 mg/kg A420983 (100%)
Method: For both the LPS-induced TNFα as well as the anti-CD3 induced IL-2 model, female Balb/c mice of 8–12 week old were used. Mice were treated orally with 0.2 ml compound or vehicle (water/mannitol (5%) with 5% DMSO/5% chremophore for the LPS model or with 0.5% gelatine for the anti-CD3 model). One hour after oral treatment animals were challenged i.p. with 0.2 ml of either 20 μg/mouse LPS (Sigma, E. coli serotype 055:B5) or 5 µg/mouse hamster anti-CD3 monoclonal (BD Biosciences Pharmingen, art. nr. 553057, clone 145-2C11). Ninety minutes after LPS injection or 3 hours after anti-CD3 challenge, blood samples were collected and serum levels of TNFα or IL-2 were determined via specific ELISAs (BD Biosciences Pharmingen, San Diego, CA, USA). In the experiment that included treatment with RU486 to block GR, mice were dosed subcutaneously with 50 mg/kg RU486 30 minutes before the oral compound dosing. ED50 and % efficacy (maximal percentage inhibition of TNFα or IL-2 release) are determined using a 3 parameter sigmoidal curve calculation. Statistical analysis of the results was performed using an one-way ANOVA (log) test.

[2] = Mouse fasting blood glucose; type: in vivo; details: oral daily 28 days; prednisolone 0.5 or 10 mg/kg/day, Org 214007-0 0.17 or 1.5 mg/kg/day; 9 hours fasting
Method: Eighteen hours after the last oral treatment and 9 hours after start of starvation, blood samples were taken from the tail vein and directly used for glucose measurements using “One touch Ultra” glucose meter from Lifescan EuroFlash (Lifescan Benelux Beerse, Belgium). The mouse MIDA study was performed as described previously by van Dijk et al., [52]. […] On the third day, mice were cannulated in the right jugular vein. After 7 days of treatment, mice were placed in small Plexiglas cages, which allowed collection of blood samples frequently in freely moving mice. […] During the experiment blood glucose was measured and blood spots for GCMS measurements were collected from tail tips just before the start of the infusion and at hourly intervals. […] Glucose and paracetamol-glucuronic acid (Par-GLcUa) were extracted from blood spot and urine filter papers, respectively, derivatised, and measured by GC-MS, essentially as described previously, [52]. […] From isotope dilution and infusion rates, the flux rates of the following metabolic pathways could be calculated: 1) de novo synthesis of G6P, 2) glucokinase, 3) glucose-6-phosphatase, 4) glycogenolysis, and 5) glycogen synthesis. […]

Pharmacokinetics in mice = type: in vivo, mouse; details: for half-life: read-out: T1/2 eli (converted); for C0: extrapolated to T=0, read-out: Cmax; for Tmax: female Balb/c mice
Method: For each time-point 3 female Balb/c mice are used. Tmax = Time of maximum observed concentration (in case of i.v. administration Tmax = 0 h); time is expressed in hours (h). Cmax = concentration corresponding to Tmax and expressed in nmol/ml, for i.v. dosing Cmax is extrapolated to T=0. T 1/2 eli(mination) (terminal half-life) = ln(2)/λz expressed in h(ours). AUClast = Area under the curve from the time of dosing (Dosing-time) to the last measurable concentration. AUCinf = predicted Area Under the Curve from the time of dosing extrapolated to infinity and expressed in “h*nmol/ml”. Vz = Volume of distribution based on the terminal phase = Dose / λz* AUCinf and expressed inL/kg. Cl = total body clearance = Dose / AUCinf and expressed in L/h/kg. MRTinf = mean residence time (MRT) extrapolated to infinity for non-infusion models, expressed in h. Vss = gives an estimate of the volume of distribution at steady-state and is expressed in L/kg. […] The bioavailability is expressed in %. i.v. = intraveneously, p.o. = per oral

[3] = female, Balb/c, mouse, in vivo, iv, 4 umol/kg, 4 μmol/kg i.v.
[4] = female, Balb/c, mouse, in vivo, po, 10 umol/kg, 10 μmol/kg p.o.
[5] = female, Balb/c, mouse, in vivo, iv, 10 umol/kg, 10 μmol/kg i.v.
[6] = female, Balb/c, mouse, in vivo, po, 20 umol/kg, 20 μmol/kg p.o.

IC50 (THP-1 cells; read-out: IC50, IL-6 release): 9.3 nM
IC50 (THP-1 cells; read-out: IC50, IL-8 release): 11 nM
IC50 (THP-1 cells; read-out: IC50, MCP-1 release): 23.5 nM
fasting blood glucose levels vs vehicle [2]: not affected
Cl (Pharmacokinetics in mice; 10 μmol/kg p.o.): 6.7 mL/min/kg
Vz (Pharmacokinetics in mice; 10 μmol/kg p.o.): 3.2 L/kg
AUC(0-inf) (Pharmacokinetics in mice; [3]): 10.8 µM·h
AUC(0-t) (Pharmacokinetics in mice; [3]): 10.1 µM·h
MRT inf (Pharmacokinetics in mice; [3]): 474 min
clearance (Pharmacokinetics in mice; [3]): 6.67 mL/min/kg
half-life (Pharmacokinetics in mice; [3]): 384 min
Vd (Pharmacokinetics in mice; female, Balb/c, mouse, in vivo, iv, 4 umol/kg, 4 μmol/kg i.v., read-out: Vss): 2.9 L/kg
Vd (Pharmacokinetics in mice; female, Balb/c, mouse, in vivo, iv, 4 umol/kg, 4 μmol/kg i.v., read-out: Vz): 3.4 L/kg
C0 (Pharmacokinetics in mice; female, Balb/c, mouse, in vivo, iv, 4 μmol/kg i.v.): 2.19 µM
AUC(0-inf) (Pharmacokinetics in mice; [4]): 24.2 µM·h
AUC(0-t) (Pharmacokinetics in mice; [4]): 23.2 µM·h
Cmax (Pharmacokinetics in mice; [4]): 2.12 µM
MRT inf (Pharmacokinetics in mice; [4]): 426 min
bioavailability (Pharmacokinetics in mice; female, Balb/c, mouse, in vivo, po, 10 umol/kg, 10 μmol/kg p.o., read-out: F (% bioavailability)): 89.7%
half-life (Pharmacokinetics in mice; [4]): 318 min
Tmax (Pharmacokinetics in mice; mouse, in vivo, po, 10 umol/kg, 10 μmol/kg p.o.): 30 min
Compound: Cc1nnsc1C(=O)N[C@H]1CCN2c3ccc(C#N)cc3[C@@H](C)c3ccccc3[C@@H]2C1 [Org 214007-0]
Max. eff., IL-6 repression (THP-1 cells): 78 (±9) %
Max. eff., IL-8 repression (THP-1 cells): 74 (±10) %
Max. eff., MCP-1 repression (THP-1 cells): 44 (±8) %
ED50 [1]: ~0.3 mg/kg
efficacy, inhibition of anti-CD3-induced IL-2 [1]: 75%

Compound: C[C@]12C=CC(=O)C=C1CC[C@@H]1[C@@H]2[C@@H](O)C[C@@]2(C)[C@H]1CC[C@]2(O)C(=O)CO [prednisolone, reference compound]
IC50 (THP-1 cells; read-out: IC50, IL-6 release): 34.1 nM
IC50 (THP-1 cells; read-out: IC50, IL-8 release): 36.9 nM
IC50 (THP-1 cells; read-out: IC50, MCP-1 release): 69.9 nM
Max. eff., IL-6 repression (THP-1 cells): 100%
Max. eff., IL-8 repression (THP-1 cells): 100%
Max. eff., MCP-1 repression (THP-1 cells): 100%
ED50 [1]: ~10 mg/kg
efficacy, inhibition of anti-CD3-induced IL-2 [1]: 75%
fasting blood glucose levels vs vehicle [2]: significantly elevated
Cl (Pharmacokinetics in mice; 20 μmol/kg p.o.): 30 mL/min/kg
Vz (Pharmacokinetics in mice; 20 μmol/kg p.o.): 1.2 L/kg
AUC(0-inf) (Pharmacokinetics in mice; [5]): 7.1 µM·h
AUC(0-t) (Pharmacokinetics in mice; [5]): 7.1 µM·h
MRT inf (Pharmacokinetics in mice; [5]): 24 min
clearance (Pharmacokinetics in mice; [5]): 23.3 mL/min/kg
half-life (Pharmacokinetics in mice; [5]): 15.6 min
Vd (Pharmacokinetics in mice; female, Balb/c, mouse, in vivo, iv, 10 umol/kg, 10 μmol/kg i.v., read-out: Vss): 0.5 L/kg
C0 (Pharmacokinetics in mice; female, Balb/c, mouse, in vivo, iv, 10 μmol/kg i.v.): 18 µM
AUC(0-inf) (Pharmacokinetics in mice; [6]): 11 µM·h
AUC(0-t) (Pharmacokinetics in mice; [6]): 11 µM·h
Cmax (Pharmacokinetics in mice; [6]): 11.5 µM
MRT inf (Pharmacokinetics in mice; [6]): 48 min
half-life (Pharmacokinetics in mice; [6]): 24 min
Tmax (Pharmacokinetics in mice; mouse, in vivo, po, 20 umol/kg, 20 μmol/kg p.o.): 18 min
